Converted amounts (≈) assume the structure as drawn.

The test system of one data set is MRSA strain ATCC 33591. The format is in vivo, New Zealand White rabbits. As to conditions: surgical debridement at day 7 followed by 50 mg/kg IV vancomycin twice a day for 7 days, N = 5.
A short description of data set [1]: Vancomycin serum pharmacokinetics and therapeutic monitoring in rabbits. As to conditions: 50 mg/kg IV every 12 h, Roche VANC3 assay.
The subject of data set [2] is Methicillin-Resistant Staphylococcus aureus strain ATCC 33591. The following applies: MRSA ATCC 33591; determined previously; cited from earlier work. How it is done:
The Methicillin-Resistant Staphylococcus aureus strain ATCC 33591, previously used in our laboratory for biofilms models, was used. […] Bacteria were grown overnight on tryptic soy agar (TSA) plates from frozen stock. Some colonies were then suspended in sterile PBS, adjusted to an OD620 nm of 0.5 (∼8 log10 CFU), and diluted 1:10 in PBS. The bacterial suspension was stored at 4°C until inoculation (1.5–2 h). Serial dilutions of the bacterial inoculum were plated on TSA to confirm the bacterial inoculum.

Data set [3] in a line: Renal tolerance of vancomycin regimen (serum creatinine). The format is in vivo, New Zealand White rabbits. How it is done: Creatinine serum concentrations were measured in group A animals using a Fuji Dri-Chem analyzer (Fujifilm Corporation, Tokyo, Japan) with CRE-PIII slides, as per the manufacturer’s instructions.

Description for MRSA strain ATCC 33591: Following general anesthesia, the animals were installed in a Class II biosafety cabinet. The operated leg was disinfected twice with 2% chlorhexidine gluconate alcohol solution (Qualiphar, Bornem, Belgium) and the leg was sterile draped. The joint was approached through a medial parapatellar incision. The medial meniscus was resected and 5 mm of the medial tibial plateau was removed using a high-speed burr. The cut height was confirmed using a spacer block. The bone surface was then further prepared using a custom tibial punch. After irrigation of the joint space with sterile saline, the final implants were impacted. The joint was then further irrigated with sterile saline. The joint capsule, subcutaneous tissues, and skin were closed separately with running sutures using a 3/0 polyester thread. The joints of groups B and C animals were inoculated by intra-articular injection of 100 μl of a 6.5 log10 CFU/ml MRSA suspension after the closure of the subcutaneous tissues. […] The wounds were then covered using an antiseptic spray and dressed.
Animals of groups C were operated on 1 week after the initial surgery. Following anesthesia, the operated leg was disinfected twice with 2% chlorhexidine gluconate alcohol solution and the leg was draped. The initial approach was re-used. Pus samples were collected immediately after the capsule was breached and stored on ice until analyzed. […]

As for `CN[C@H](CC(C)C)C(=O)N[C@H]1C(=O)N[C@@H](CC(N)=O)C(=O)N[C@H]2C(=O)N[C@H]3C(=O)N[C@H](C(=O)N[C@H](C(=O)O)c4cc(O)cc(O)c4-c4cc3ccc4O)[C@H](O)c3ccc(c(Cl)c3)Oc3cc2cc(c3O[C@@H]2O[C@H](CO)[C@@H](O)[C@H](O)[C@H]2O[C@H]2C[C@](C)(N)[C@H](O)[C@H](C)O2)Oc2ccc(cc2Cl)[C@H]1O` [vancomycin, Vancomycin], in the data set with MRSA strain ATCC 33591 (5.5 log10 CFU MRSA inoculum, p < 0.0001), the “bacterial counts in all samples (bone, pus, implant) except the joint capsule, group C versus group B” value is reported as “significantly reduced”. For the same compound, the “mean difference in CFU counts in capsule samples, group C versus group B” value in the data set on MRSA strain ATCC 33591 (not statistically significant, p = 0.35) was found to be 0.74 log10 CFU/g. Also, in data set [1] (group A NZW rabbits), the “vancomycin serum concentration 12 h after the injections” value is roughly 0 µg/mL. Further, the “AUC0–12 h following the first vancomycin injection” value in data set [1] (group A non-infected NZW rabbits, 1st injection, trapezoid rule, mean, N = 5, SD 15.79) stood at 213.0 µg·h/mL. In data set [2], the MBEC was greater than 1024 µg/mL and the MIC (as a rule, the smallest concentration in the dilution series that meets the test's criterion for growth inhibition) is 1 µg/mL (≈ 0.69 µM). For the same compound, the renal toxicity result in data set [3] (NZW rabbits, 50 mg/kg IV vancomycin twice a day) is recorded as “No renal toxicity was observed”. In addition, in data set [3] (group A NZW rabbits, 50 mg/kg IV vancomycin twice a day for 7 days, Fuji Dri-Chem analyzer), the “serum creatinine concentrations throughout the experiment” value is “stable”.

Source of the values: PMC9606572, “Development of an innovative in vivo model of PJI treated with DAIR” (Frontiers in Medicine, 2022).
